Earlier results on three compounds are cited in patent US20140023718A1, “PROSTAGLANDIN-CONTAINING FAT EMULSION” (FUJIFILM Corporation, priority 2011, published 2014).

For the series the following is noted: 25° C. water.

The term pKa denotes the negative logarithm of the acid dissociation constant. As for `CCCC(=O)O` [butyric acid], the pKa is listed as 4.63.

For the compound `O=C(O)CC(O)C(=O)O` (centres unmarked) [malic acid], the pKa1 is 3.40 and the pKa2 was 5.13.

Regarding `O=C(O)CCC(=O)O` [succinic acid], the pKa1 is 4.00 and the pKa2 is 5.24.
